Source: patent US20240384268A1, “Oligonucleotides” (Hudson Institute of Medical Research, priority 2021, published 2024)

Molecular target: cGAS (Homo sapiens, UniProt Q8N884)
Assay: ISD70-driven IP-10 (and IFN-β) production in THP-1 cells, ELISA
Type: cell-based
Set-up: endogenous in cells; host or cells: THP-1 (undifferentiated)
Conditions: ASO 100 nM; relative to ISD70 only, given as fraction

cGAS, sequence (Q8N884 whole entry): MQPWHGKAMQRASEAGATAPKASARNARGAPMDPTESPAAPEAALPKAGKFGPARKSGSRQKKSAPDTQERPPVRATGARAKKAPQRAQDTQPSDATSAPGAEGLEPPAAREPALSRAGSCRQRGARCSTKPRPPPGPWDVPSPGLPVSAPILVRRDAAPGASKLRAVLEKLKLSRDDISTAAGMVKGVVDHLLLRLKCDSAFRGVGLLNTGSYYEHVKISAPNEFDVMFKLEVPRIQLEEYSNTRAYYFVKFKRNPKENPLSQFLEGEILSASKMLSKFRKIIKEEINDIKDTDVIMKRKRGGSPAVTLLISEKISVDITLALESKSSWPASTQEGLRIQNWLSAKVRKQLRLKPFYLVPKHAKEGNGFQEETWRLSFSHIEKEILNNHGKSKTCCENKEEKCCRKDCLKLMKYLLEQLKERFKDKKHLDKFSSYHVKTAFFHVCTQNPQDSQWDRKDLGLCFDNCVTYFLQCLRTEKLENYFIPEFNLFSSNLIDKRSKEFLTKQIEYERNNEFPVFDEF

Question: “AAAGGACTGAGGAAAG (antisense; LNA-modified, pattern not given here) [CAMSAP1-6273 LNA KL]” was tested. Which “cGAS 100 nM (averaged IP-10 level relative to ISD70 condition)” value did it give?
Answer: The value was 0.675.

Question: Which “cGAS 100 nM (averaged IP-10 level relative to ISD70 condition)” value does the source give for “AACACTTCGTGGGGTC (antisense; LNA-modified, pattern not given here) [HPRT LNA-666 V1]” here?
Answer: The value was 0.598.

Question: With “AACCCCTTTCACCATC (antisense; LNA-modified, pattern not given here) [MB21D1-689 LNA KL]” as the sequence, how does the “cGAS 100 nM (averaged IP-10 level relative to ISD70 condition)” value read?
Answer: The value was 0.621.

Question: “AATCCAACAAAGTCTG (antisense; LNA-modified, pattern not given here) [HPRT LNA-692 KL]” was tested. Which “cGAS 100 nM (averaged IP-10 level relative to ISD70 condition)” value did it give?
Answer: Its value is 0.649.

Question: “ACCACGTCTGCTCTAA (antisense; LNA-modified, pattern not given here) [CAMSAP1-1635 LNA KL]” was tested. Which “cGAS 100 nM (averaged IP-10 level relative to ISD70 condition)” value did it give?
Answer: Its value is 0.638.

Question: With “ACGTTCAGTCCTGTCC (antisense; LNA-modified, pattern not given here) [HPRT LNA-294 V1]” as the sequence, how does the “cGAS 100 nM (averaged IP-10 level relative to ISD70 condition)” value read?
Answer: The value was 0.880.

Question: How did the “cGAS 100 nM (averaged IP-10 level relative to ISD70 condition)” value turn out when “ACTTCGTGGGGTCCTT (antisense; LNA-modified, pattern not given here) [HPRT LNA-663 V1]” was run?
Answer: The value was 0.937.

Question: For “AGATTTCAGAGCAGCT (antisense; LNA-modified, pattern not given here) [EGFR-4885 LNA KL]”, which “cGAS 100 nM (averaged IP-10 level relative to ISD70 condition)” value is on record?
Answer: The value was 0.625.

Question: With “AGCTTCGAGGCCCCAG (antisense; LNA-modified, pattern not given here) [MB21D1-616 LNA V1]” as the sequence, how does the “cGAS 100 nM (averaged IP-10 level relative to ISD70 condition)” value read?
Answer: The value was 0.648.

Question: Which “cGAS 100 nM (averaged IP-10 level relative to ISD70 condition)” value does the source give for “AGGACTCCAGATGTTT (antisense; LNA-modified, pattern not given here) [HPRT LNA pos cont]” here?
Answer: Its value is 0.632.

Question: For “AGGCCCTTCGCACTTC (antisense; LNA-modified, pattern not given here) [EGFR-1225 LNA V1]”, which “cGAS 100 nM (averaged IP-10 level relative to ISD70 condition)” value is on record?
Answer: The value was 0.629.

Question: For “AGGTCTTGGCTTCGTG (antisense; LNA-modified, pattern not given here) [MB21D1-524 LNA V1]”, which “cGAS 100 nM (averaged IP-10 level relative to ISD70 condition)” value is on record?
Answer: Its value is 0.947.

Question: With “AGTGTTGAGATACTCG (antisense; LNA-modified, pattern not given here) [EGFR-3652 LNA KL]” as the sequence, how does the “cGAS 100 nM (averaged IP-10 level relative to ISD70 condition)” value read?
Answer: The value was 0.692.

Question: For “ATCTGGCAGCCCATCA (antisense; LNA-modified, pattern not given here) [CTNN2B-2516 LNA V1]”, which “cGAS 100 nM (averaged IP-10 level relative to ISD70 condition)” value is on record?
Answer: The value was 0.502.

Question: Which “cGAS 100 nM (averaged IP-10 level relative to ISD70 condition)” value does the source give for “ATGGCCTCCCATCTCC (antisense; LNA-modified, pattern not given here) [HPRT LNA-330 V1]” here?
Answer: The value was 0.475.

Question: Which “cGAS 100 nM (averaged IP-10 level relative to ISD70 condition)” value does the source give for “ATGTGATGGCCTCCCA (antisense; LNA-modified, pattern not given here) [HPRT LNA-335 V1]” here?
Answer: Its value is 0.606.

Question: How did the “cGAS 100 nM (averaged IP-10 level relative to ISD70 condition)” value turn out when “CACTTCGTGGGGTCCT (antisense; LNA-modified, pattern not given here) [HPRT LNA-664 V1]” was run?
Answer: Its value is 0.562.

Question: With “CATCCACCACGTCGTC (antisense; LNA-modified, pattern not given here) [EGFR-3266 LNA V1]” as the sequence, how does the “cGAS 100 nM (averaged IP-10 level relative to ISD70 condition)” value read?
Answer: Its value is 0.902.

Question: “CCAACACTTCGTGGGG (antisense; LNA-modified, pattern not given here) [HPRT LNA-668 V1]” was tested. Which “cGAS 100 nM (averaged IP-10 level relative to ISD70 condition)” value did it give?
Answer: The value was 0.842.

Question: “CCACATCCTGTGGCTC (antisense; LNA-modified, pattern not given here) [CAMSAP1-2906 LNA V1]” was tested. Which “cGAS 100 nM (averaged IP-10 level relative to ISD70 condition)” value did it give?
Answer: Its value is 0.999.

Question: Which “cGAS 100 nM (averaged IP-10 level relative to ISD70 condition)” value does the source give for “CCACTTGGCAGACCAT (antisense; LNA-modified, pattern not given here) [CTNN2B-1575 LNA V1]” here?
Answer: The value was 0.532.

Question: With “CCAGCAGGTCAGCAAA (antisense; LNA-modified, pattern not given here) [HPRT LNA-388 KL]” as the sequence, how does the “cGAS 100 nM (averaged IP-10 level relative to ISD70 condition)” value read?
Answer: Its value is 0.552.

Question: “CCTTGCACGTGGCTTC (antisense; LNA-modified, pattern not given here) [EGFR-1013 LNA V1]” was tested. Which “cGAS 100 nM (averaged IP-10 level relative to ISD70 condition)” value did it give?
Answer: Its value is 0.559.

Question: With “CGCTTTTCTGTCTGGT (antisense; LNA-modified, pattern not given here) [CTNN2B-311 LNA KL]” as the sequence, how does the “cGAS 100 nM (averaged IP-10 level relative to ISD70 condition)” value read?
Answer: The value was 0.475.

Question: “CGGCCTCGGAAGCTCT (antisense; LNA-modified, pattern not given here) [MB21D1-168 LNA V1]” was tested. Which “cGAS 100 nM (averaged IP-10 level relative to ISD70 condition)” value did it give?
Answer: The value was 0.617.

Question: How did the “cGAS 100 nM (averaged IP-10 level relative to ISD70 condition)” value turn out when “CGTATTATAGCCGATT (antisense; LNA-modified, pattern not given here) [NC1 LNA PS 3-10-3]” was run?
Answer: Its value is 0.443.

Question: For “CTGCAGCTTCCTTGTC (antisense; LNA-modified, pattern not given here) [CTNN2B-2136 LNA V1]”, which “cGAS 100 nM (averaged IP-10 level relative to ISD70 condition)” value is on record?
Answer: Its value is 0.613.

Question: For “CTTCGTGGGGTCCTTT (antisense; LNA-modified, pattern not given here) [HPRT LNA-662 V1]”, which “cGAS 100 nM (averaged IP-10 level relative to ISD70 condition)” value is on record?
Answer: Its value is 0.556.

Question: “CTTGAAGCATCGTATC (antisense; LNA-modified, pattern not given here) [CTNN2B-3648 LNA KL]” was tested. Which “cGAS 100 nM (averaged IP-10 level relative to ISD70 condition)” value did it give?
Answer: The value was 0.373.

Question: “CTTGGCTTCGTGGAGC (antisense; LNA-modified, pattern not given here) [MB21D1-520 LNA V1]” was tested. Which “cGAS 100 nM (averaged IP-10 level relative to ISD70 condition)” value did it give?
Answer: Its value is 0.666.

Question: Which “cGAS 100 nM (averaged IP-10 level relative to ISD70 condition)” value does the source give for “GAAAGGTTATGCAAGG (antisense; LNA-modified, pattern not given here) [CTNN2B-916 LNA KL]” here?
Answer: The value was 0.473.

Question: Which “cGAS 100 nM (averaged IP-10 level relative to ISD70 condition)” value does the source give for “GACTATACGCGCAATA (antisense; LNA-modified, pattern not given here) [NC5 LNA PS 3-10-3]” here?
Answer: The value was 0.991.

Question: Which “cGAS 100 nM (averaged IP-10 level relative to ISD70 condition)” value does the source give for “GAGGTCTTGGCTTCGT (antisense; LNA-modified, pattern not given here) [MB21D1-525 LNA V1]” here?
Answer: The value was 0.508.

Question: “GATGGCCTCCCATCTC (antisense; LNA-modified, pattern not given here) [HPRT LNA-331 V1]” was tested. Which “cGAS 100 nM (averaged IP-10 level relative to ISD70 condition)” value did it give?
Answer: Its value is 0.632.

Question: “GCACACTTCGTACCCA (antisense; LNA-modified, pattern not given here) [CAMSAP1-4915 LNA V1]” was tested. Which “cGAS 100 nM (averaged IP-10 level relative to ISD70 condition)” value did it give?
Answer: Its value is 0.383.

Question: For “GCACTTCAGTCTGAGC (antisense; LNA-modified, pattern not given here) [MB21D1-719 LNA KL]”, which “cGAS 100 nM (averaged IP-10 level relative to ISD70 condition)” value is on record?
Answer: Its value is 0.797.

Same assay, conditions: MOE-modified ASO at 100 nM; averaged IP-10 levels relative to ISD70 condition

Question: How did the “cGAS 100 nM” value turn out when “ACACTTCGTGGGGTCCTTTT (antisense; 2'-MOE modified, pattern not given here) [HPRT-663 MOE]” was run?
Answer: Its value is 0.623.

Same assay, conditions: THP-1; 300 nM LNA or 200 nM MOE ASO ~30 min; ISD70 overnight (FIG. 21, 23)

Question: How did the “inhibition of cGAS in THP-1, LNA and MOE ASO validation (in words)” value turn out when “CGCTTTTCTGTCTGGT (antisense; LNA-modified, pattern not given here) [CTNN2B-311 LNA KL]” was run?
Answer: Its value is “potently inhibited signalling”.

Question: How did the “inhibition of cGAS in THP-1, LNA and MOE ASO validation (in words)” value turn out when “CTTGAAGCATCGTATC (antisense; LNA-modified, pattern not given here) [CTNN2B-3648 LNA KL]” was run?
Answer: Its value is “failed to significantly inhibit cGAS”.
